From patent US5621133A (priority 1995, dated 1997)
Structures can show the parent of a compound that is named as a salt.

Key:
[1] = target: dopamine D-2 receptor (Rattus norvegicus, UniProt P61169); test: biochemical; type: binding; settings: rat caudate, [125I]-p-aminophenylethyl spiroperidol; read-out: D-2 Ki
Protocol: Homogenized rat caudate was the source of the D-2 receptors. […] The molar affinity of the compound for the receptor binding site was calculated by the same method used for the D-1 receptor assay, assuming a competitive interaction between the compound and the radiolabeled ligand.

[2] = tested on: striatal dopamine receptors; test: Rotation behavior assay of in vivo activity (6-hydroxydopamine lesioned rat rotational model); settings: for ED50 s.c. (rotation behavior): injected subcutaneously
[3] = tested on: anesthetized dogs; test: Cardiovascular pharmacology - hemodynamic studies in anesthetized dogs; type: in vivo, dog (Beagle); settings: cumulative intraaortic infusion above renal arteries; dose ranges (g/kg/min): 2A 3-10, 3 1-10, 35 1-3, 36 1-10, 37 1-30
Protocol: Male Beagle dogs were anesthetized with pentobarbital (30 mg/kg. i.v.) and maintained with i.v. infusion (Abbott/Shaw Life Care Pump, Model II/D) to maintain stable cardiovascular function. The dogs were […] with a cuffed endotracheal tube and ventilated with room air by means of a positive pressure respiratory pump. Expired respiratory CO2 was monitored with a Beckman LB-2 gas analyzer and maintained at 5% by appropriate pump adjustments. The dogs were maintained at a body temperature of 37.5°±1.0° C. with a thermostatically controlled animal table. Polyethylene catheters were placed in the abdominal aorta via the femoral and carotid arteries for blood pressure and left ventricular pressure recordings. A Swan-Ganz thermodilution catheter with a 15 cm proximal port was placed in the jugular vein for central venous and pulmonary arterial recordings and for determination of cardiac output (American Edwards Cardiac Output Computer, Model COM-1). Heart rate and electrocardiogram (ECG) recordings were made from a Lead II ECG connection. […] A calibrated electromagnetic flow probe (Carolina Medical Electronics) was positioned around the renal artery. The abdominal cavity is closed with wound clips. Recordings were made on a Grass polygraph. An additional small polyethylene catheter was inserted into a branch of the left femoral artery and the tip positioned in the aorta above the renal arteries. […] A thirty-fold dose-response-curve was administered by varying flow rate from 0.01 to 0.30 mL/minute.

[4] = tested on: dopamine D-1 receptor; settings: for Intrinsic Activity (adenylate cyclase assay): dopamine = 100, goldfish retina or rat striatum; for EC50: read-out: EC50 (agonist activity in adenylate cyclase assay), tissue from goldfish retina or rat striatum
Protocol: In order to determine agonist activity, cell-free tissue homogenates are incubated in an ionic buffer solution containing ATP and the compound being evaluated. The tissue was obtained from either goldfish retina or rat striatum.

[5] = target: dopamine D-1 receptor (Rattus norvegicus, UniProt P18901); test: biochemical; settings: D-1 Ki, rat caudate, [125I]SCH-23982
Text: The compounds compete with the radiolabeled ligand for occupancy of the receptors and the molar potency of each compound was quantified.
The Ki values are inversely proportional to the affinity of the compound for the receptor.

[6] = tested on: Parkinson's Disease; settings: cited from earlier work
[7] = tested on: spontaneously hypertensive rats; test: Diuretic effects in spontaneously hypertensive rats; type: in vivo, rat; settings: 3.0 mg/kg i.v., 2 hour interval
Protocol: Male, spontaneously hypertensive rats (SHR), weighing 285-350 grams were used to evaluate the diuretic effects of one of the compounds of the invention. Following an overnight fasting period with free access to drinking water, the rats received an intragastric fluid load of 0.9 saline at 5% of their body weight. Simultaneously with the load, the rats were dosed with a test compound or vehicle and placed individually in stainless steel metabolic cages where they had access to drinking water throughout the duration of the experiment. For intravenous administration, the rats were instrumented with indwelling cannulas placed into the jugular vein at least one week prior to the experiment.
Urine was collected at 2 and 4 hours following drug administration. The volume of excreted urine at each collection interval was measured accurately and the samples were analyzed for sodium, potassium and chloride ions. Sodium and potassium were measured using a Digital Readout Flame Photometer (Instrumentation Labs). Chloride was measured by the method of Shales and Shales, J Biol Chem 140:879 (1941). The statistical analysis of the data was computed by an off-line computer program. In this program, a comparison test is made between the vehicle (control) group and each treatment group for all variables at each time interval of the experiment. The test of statistical significance is based on the Student's t-test, where the calculated t is a measure of the probability density function.
A control group of six rats received 0.1 mg/kg of saline solution acidified by ascorbic acid (0.3 mL). This solution was also the vehicle for the test compound.

[8] = tested on: rats; settings: cited from earlier work

dopamine D-1 receptor (Rattus norvegicus, UniProt P18901), sequence (P18901 whole entry): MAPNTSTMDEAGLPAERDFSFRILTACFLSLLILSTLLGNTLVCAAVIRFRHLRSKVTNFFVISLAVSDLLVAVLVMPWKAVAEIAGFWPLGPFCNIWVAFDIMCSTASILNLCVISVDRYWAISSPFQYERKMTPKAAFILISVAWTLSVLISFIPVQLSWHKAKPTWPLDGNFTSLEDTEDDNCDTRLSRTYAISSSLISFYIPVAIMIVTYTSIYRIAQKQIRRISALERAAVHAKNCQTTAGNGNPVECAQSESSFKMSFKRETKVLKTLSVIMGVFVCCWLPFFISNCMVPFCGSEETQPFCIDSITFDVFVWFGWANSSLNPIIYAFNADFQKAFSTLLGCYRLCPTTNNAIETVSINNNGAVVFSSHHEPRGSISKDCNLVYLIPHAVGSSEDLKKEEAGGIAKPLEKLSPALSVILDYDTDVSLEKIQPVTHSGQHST
dopamine D-2 receptor, sequence (P61169 whole entry): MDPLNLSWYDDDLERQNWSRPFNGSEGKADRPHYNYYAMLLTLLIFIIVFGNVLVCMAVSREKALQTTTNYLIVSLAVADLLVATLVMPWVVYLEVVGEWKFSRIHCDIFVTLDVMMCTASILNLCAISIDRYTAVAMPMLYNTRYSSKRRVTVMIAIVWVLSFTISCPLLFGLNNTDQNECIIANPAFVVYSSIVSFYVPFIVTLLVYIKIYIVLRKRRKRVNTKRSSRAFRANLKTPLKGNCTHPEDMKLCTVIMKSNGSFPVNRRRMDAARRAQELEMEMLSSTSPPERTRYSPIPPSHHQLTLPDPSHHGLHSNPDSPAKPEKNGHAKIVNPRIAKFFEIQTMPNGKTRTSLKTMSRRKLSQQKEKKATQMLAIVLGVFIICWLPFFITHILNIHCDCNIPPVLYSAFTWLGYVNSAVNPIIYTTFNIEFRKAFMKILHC

| Ki [1] [nM] | Intrinsic Activity (adenylate cyclase assay) [4] | EC50 [4] [nM] | Ki [5] [nM] | Compound | Max Decrease MAP (mean arterial blood pressure) [3] [%] | Max Increase RBF (renal blood flow) [3] [%] | other results |
| --- | --- | --- | --- | --- | --- | --- | --- |
| > 10000 | 56 |  |  | Br.NCC1=CC(c2ccccc2)Cc2c1ccc(O)c2O (stereo not shown) [Example 2A, 1-Aminomethyl-5,6-dihydroxy-3-phenyl-3,4-dihydronaphthalene Hydrobromide] | 32 | 27 | Urine potassium ([7]; control 0.29, n = 6): 0.55 meq/kg; Urine sodium ([7]; control 1.60, n = 6): 2.35 meq/kg; Urine chloride ([7]; control 1.87, n = 6): 2.71 meq/kg; Urine volume ([7]; control 13.02, n = 6): 22.57 mL/kg |
| 10000 | 56 | 31 | 57 | Br.NC[C@@H]1C[C@H](C2CCCCC2)Cc2c1ccc(O)c2O [Example 37, [1R,3S]1-Aminomethyl-3-cyclohexyl-5,6-dihydroxy-1,2,3,4-tetrahydronaphthalene Hydrobromide] | 39 | 48 |  |

Second part, the compound before the results:

| Compound | Ki [1] [nM] | Intrinsic Activity (adenylate cyclase assay) [4] | EC50 [4] [nM] | Ki [5] [nM] | Max Decrease MAP (mean arterial blood pressure) [3] [%] | Max Increase RBF (renal blood flow) [3] [%] | other results |
| --- | --- | --- | --- | --- | --- | --- | --- |
| NC[C@H]1C[C@@H](c2ccccc2)Cc2c1ccc(O)c2O (relative stereo) [Example 35, [1,3-cis]1-Aminomethyl-5,6-dihydroxy-3-phenyl-1,2,3,4-tetrahydronaphthalene Hydrobromide] | 760 | 66 | 10 | 30 | 26 | 35 | ED50 oral (rotation behavior) [2]: 21.4 µmol/kg |
| CC(C)C[C@H]1C(=O)N2CCC[C@H]2[C@]2(O)O[C@](NC(=O)[C@@H]3C=C4c5cccc6[nH]c(Br)c(c56)C[C@H]4N(C)C3)(C(C)C)C(=O)N12 [bromocryptine] |  |  |  |  |  |  | effect on L-DOPA requirement [6]: lowers the amount of L-DOPA required to achieve the maximal therapeutic response |
| Br.NCC1=CC(C2CCCCC2)Cc2c1ccc(O)c2O (stereo not shown) [Example 36, 1-Aminomethyl-3-cyclohexyl-5,6-dihydroxy-3,4-dihydronaphthalene Hydrobromide] | > 10000 | 57 | 79 | 200 | 13 | 94 | ED50 s.c. (rotation behavior) [2]: 0.5 µmol/kg; ED50 oral (rotation behavior) [2]: 170 µmol/kg |
| CC(=O)Oc1ccc2c(c1OC(C)=O)CC(c1ccccc1)C=C2CN.Cl (stereo not shown) [Example 3, 5,6-Bis(acetoxy)-1-aminomethyl-3-phenyl-3,4-dihydronaphthalene Hydrochloride] |  |  |  |  | 8 | 83 | ED50 s.c. (rotation behavior) [2]: 0.91 µmol/kg |
| Oc1cc2c(cc1O)C(c1ccccc1)CNCC2 (stereo not shown) [SKF 38393] |  |  |  |  |  |  | food intake [8]: decrease food intake |
